In article PMC10319809, “Chronic UCN2 treatment desensitizes CRHR2 and improves insulin sensitivity” (Nature Communications, 2023):
“And” between values parts separate entries of the source, which are not always exact repeats. Equal entries are not always repeated. Where no end group is shown, it is not given here.

How the values were obtained:
human CRHR2a (Gs) = target: T1, human CRHR2a (Gs) (Homo sapiens, UniProt Q13324); experiment: ebBRET effector membrane translocation assay (EMTA), Gs biosensor; assay type: cell-based; conditions: comparison of concentration response curves; Gs at lower concentration
T1 construct: expressed in transfected cells; host or cells: HEK293 cells (Millipore Sigma), transient PEI co-transfection with biosensor plasmids at Domain Therapeutics
T1 sequence (Q13324 1-411): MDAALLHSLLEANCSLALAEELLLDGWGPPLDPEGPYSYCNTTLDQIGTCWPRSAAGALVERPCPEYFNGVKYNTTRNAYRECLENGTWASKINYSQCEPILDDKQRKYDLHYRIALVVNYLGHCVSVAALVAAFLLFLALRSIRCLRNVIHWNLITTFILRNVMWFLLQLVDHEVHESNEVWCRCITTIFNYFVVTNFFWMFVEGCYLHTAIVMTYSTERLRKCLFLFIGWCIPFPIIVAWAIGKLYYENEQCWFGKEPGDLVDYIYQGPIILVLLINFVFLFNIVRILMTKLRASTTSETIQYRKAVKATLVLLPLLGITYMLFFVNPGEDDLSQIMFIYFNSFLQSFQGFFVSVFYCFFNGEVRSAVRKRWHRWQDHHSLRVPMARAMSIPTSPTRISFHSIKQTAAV
Experimental: Typically, GPCR desensitization is carried out through the recruitment of β-Arrestins or alternative G-proteins to the receptor. To identify whether these proteins are recruited to CRHR2 in response to UCN2, enhanced bystander bioluminescence resonance energy transfer (ebBRET)-based effector membrane translocation assays (EMTA) were carried out in HEK293 cells[28],[29]. Cells were co-transfected with plasmids expressing unmodified CRHR2a (alpha isoform) and one of various pathway-specific biosensors. […]
Effector membrane translocation biosensor assays (bioSensAll®) were conducted at Domain Therapeutics NA Inc. (Montreal, QC, Canada) and described in cells[28],[29]. […] Briefly, DNA and PEI were diluted separately in 150 mM NaCl, mixed and then incubated for at least 20 min at room temperature (note: salmon sperm DNA (Invitrogen) was used to adjust the total amount of DNA transfected to a final quantity of 1 ug per mL of cell culture to be transfected). During the 20-minute incubation, HEK293 cells were detached, counted and resuspended into cell culture medium to a final density of 350,000 cells per mL. […] Cells were then incubated at room temperature for 10 min and BRET readings subsequently collected with a 0.4 s integration time on a Synergy NEO plate reader (BioTek Instruments, Inc., USA; filters: 400 nm/70 nm, 515 nm/20 nm). […]

mice = experiment: Food intake studies; assay type: in vivo, mouse
Experimental: For acute studies, animals were singly housed and injected IP with saline or 1 mg/kg UCN2 (source). Food intake for the next 24 h was determined by measuring food weight in ceramic bowls within the cage. For the chronic studies, animals were singly housed and injected with Vehicle, EGFP.AAV, or UCN2.AAV. Food weight was measured in ceramic bowls every 24 h for 7 days.

Substance: IVLSLDVPIGLLQILLEQARARAAREQATTNARILARVGHC-NH2 (C-terminus assumed) [UCN2, Urocortin 2]
- UCN2 concentration for Gs activation versus engagement of Gi and β-Arrestin (human CRHR2a (Gs)): more than 10 fold
- Food Intake (mice; single IP dose 1 mg/kg UCN2, next 24 h, individual animals (Fig. 2K), 1 mg/kg): 0.27 g and 0.3 g and 0.24 g and 0.15 g and 0.38 g and 0.46 g and 0.59 g
- food intake following UCN2 dosing (mice; single dose 1 mg/kg IP): decrease in food intake
